Reference: PMC12118597 (Science Advances, 2025)
Several values for one entry are separate records, joined by “and”; a condition that tells them apart may be missing. Equal entries are not always repeated. Where two headings read alike, the source gives them in different places.

Experiments:
[1] = biological target: T1, SARS-CoV-2 NSP3 macrodomain (Mac1) (Severe acute respiratory syndrome coronavirus 2, UniProt P0DTD1); format: binding; conditions: for 1-BDC (PanDDA run, DMSO background map): event 1; for Total number of conformations: ligand conformations modeled in the crystal structure; for 2*(1-BDC) (%): occupancy estimate from PanDDA
[2] = biological target: T1, SARS-CoV-2 NSP3 macrodomain (Mac1); assay: biochemical; format: binding; conditions: for detectable binding at 200 μM in the HTRF assay: result in words
[3] = PanDDA background density correction factor
[4] = TRUE = ligand-bound crystal structure obtained (PDB code given)
[5] = crystal soak concentration 20 mM, DMSO background map
[6] = crystal soak concentration 20 mM, P43 crystals
[7] = refined crystallographic occupancy
[8] = site of Mac1 occupied in the X-ray crystal structure (Adenosine or Distal)
[9] = soak concentration 10 mM, DMSO background map
[10] = soak concentration 10 mM, P43 crystals
[11] = HTRF binding curve, SARS-CoV-2 Mac1
[12] = compound at 200 μM, mean of three to four technical replicates, read-out: % competition at 200 μM (preliminary HTRF screen)
[13] = crystal soak 10 mM, P43 crystal form
[14] = crystal soak 10 mM, DMSO background map
[15] = ligand-bound crystal structure obtained (TRUE)
[16] = site occupied in X-ray crystal structure
[17] = SARS CoV-2 macrodomain HTRF assay, dose-response
[18] = TRUE = crystal structure with ligand obtained
[19] = site of ligand in X-ray crystal structure
[20] = SARS CoV-2 macrodomain HTRF assay, single dose concentration 200 μM, read-out: Average % competition

Row | SMILES | Occupancy difference (refined_occupancy - 2*(1-BDC)) [1] | 1-BDC [1, 3] | Total number of conformations [1] | 2*(1-BDC) (%) [1] [%] | Refined ligand occupancy (%) [1, 7] [%] | Hill slope [2, 11] | PanDDA run, overall: Hit [1, 13] | PanDDA run, DMSO background map: 1-BDC [1, 14] | PanDDA run, DMSO background map: Hit [1, 14] | Hill slope [2, 17] | X-ray crystal structure [1, 18] | PanDDA run, overall: Modeled [1, 13] | Binding site [1, 19] | also measured
1 | OCC(Cc1ccccc1)Nc1ncnc2[nH]ccc12 (centres unmarked) [AVI-313] | 14 | 0.18 | 2 | 36 | 50 | 1.2 |  |  |  |  |  |  |  | X-ray crystal structure [1, 4]: TRUE; Hit (PanDDA run, DMSO background map) [1, 5]: TRUE; 1-BDC (PanDDA run, DMSO background map) [1, 5]: 0.25; Hit (PanDDA run, overall) [1, 6]: TRUE; Modeling comment (PanDDA run, overall) [1, 6]: Duplicate, not modeled; Binding site [1, 8]: Adenosine; PanDDA run, DMSO background map: 1-BDC [1, 9]: 0.18; PanDDA run, DMSO background map: Hit [1, 9]: TRUE; PanDDA run, DMSO background map: Modeled [1, 9]: TRUE; PanDDA run, overall: Hit [1, 10]: TRUE; PanDDA run, overall: Modeled [1, 10]: TRUE; Hill slope ([2]; dose-response): 1.2
2 | CC(CNC(=O)c1ccc2c(c1)CCC(=O)N2)C(=O)O (centres unmarked) [AVI-328] | 0 | 0.11 | 2 | 22 | 22 | 1.3 |  |  |  |  |  |  |  | X-ray crystal structure [1, 4]: TRUE; Binding site [1, 8]: Adenosine; PanDDA run, DMSO background map: 1-BDC [1, 9]: 0.11 and 0.1; PanDDA run, DMSO background map: Hit [1, 9]: TRUE; PanDDA run, DMSO background map: Modeled [1, 9]: TRUE; PanDDA run, overall: Hit [1, 10]: TRUE; PanDDA run, overall: Modeled [1, 10]: TRUE; PanDDA run, overall: Modeling comment [1, 10]: Duplicate, not modeled; inhibition at 200 µM [2, 12]: 50%; Hill slope ([2]; dose-response): 1.3
3 | CC1CC(C(=O)O)CN(C(=O)CSc2ccc(O)cc2)C1 (centres unmarked) [AVI-334] |  |  |  |  |  |  |  |  |  |  |  |  |  | PanDDA run, DMSO background map: 1-BDC [1, 9]: 0.07; PanDDA run, DMSO background map: Hit [1, 9]: TRUE; PanDDA run, overall: Hit [1, 10]: TRUE; PanDDA run, overall: Modeling comment [1, 10]: Weak density, not modeled; Average % competition ([2]; single dose concentration 200 μM (TS-FrankenROCS series)): 25%
4 | O=C1CCc2cc(C(=O)N3CC(C(=O)O)CCC34CCCC4)c(F)cc2N1 (centres unmarked) [AVI-338] |  |  |  | 14 |  | 1.5 |  |  |  |  |  |  |  | 1-BDC ([1]; PanDDA background density correction, 1-BDC): 0.07; X-ray crystal structure [1, 4]: TRUE; Hit (PanDDA run, DMSO background map) [1, 5]: TRUE; Modeled (PanDDA run, DMSO background map) [1, 5]: TRUE; 1-BDC (PanDDA run, DMSO background map) [1, 5]: 0.07; Hit (PanDDA run, overall) [1, 6]: TRUE; Modeled (PanDDA run, overall) [1, 6]: TRUE; Refined ligand occupancy (%) ([1]; crystallographic refinement): 14%; Binding site [1, 8]: Adenosine; Hill slope ([2]; dose-response): 1.5
5 | OC[C@@H]1C[C@H](O)CN1c1ncnc2[nH]ccc12 [AVI-610] | 18 | 0.21 | 1 | 42 | 60 | 1.2 | TRUE | 0.34 and 0.31 and 0.21 and 0.26 | TRUE | 1.2 |  |  |  | X-ray crystal structure [1, 15]: TRUE; Binding site [1, 16]: Adenosine
6 | OCC(Nc1ncnc2[nH]ccc12)C1CC1 (centres unmarked) [AVI-3651] | 0 | 0.18 | 1 | 36 | 36 | 1.2 | TRUE | 0.18 | TRUE | 1.2 | TRUE | TRUE | Adenosine | 
7 | O[C@H]1CC[C@@H]2CCN(c3ncnc4[nH]ccc34)[C@@H]21 [AVI-3664] | 0 | 0.16 | 1 | 32 | 32 | 1.2 | TRUE | 0.16 | TRUE | 1.2 |  | TRUE |  | X-ray crystal structure [1, 15]: TRUE; Binding site [1, 16]: Adenosine
8 | CCC(O)[C@H]1CCCN1c1ncnc2[nH]ccc12 (some centres unmarked) [AVI-3666] | 10 | 0.3 | 1 | 60 | 70 | 1.3 | TRUE | 0.3 | TRUE | 1.3 |  | TRUE |  | X-ray crystal structure [1, 15]: TRUE; Binding site [1, 16]: Adenosine
9 | O=C(O)C(F)(F)F.OCC1(Nc2ncnc3[nH]ccc23)CCC1 [AVI-3670] | 0 | 0.18 | 2 | 36 | 36 | 1.2 | TRUE | 0.18 | TRUE | 1.2 | TRUE | TRUE | Adenosine | 
10 | CN(C)CC(CO)Nc1ncnc2[nH]ccc12 (centres unmarked) [AVI-3671] | 0 | 0.17 | 1 | 34 | 34 |  | TRUE | 0.17 | TRUE |  | TRUE | TRUE | Adenosine | detectable binding at 200 μM in the HTRF assay [2]: neither had detectable binding
11 | OCC(CN1CCCCC1)Nc1ncnc2[nH]ccc12 (centres unmarked) [AVI-3677] | 0 | 0.21 | 1 | 42 | 42 |  | TRUE | 0.21 | TRUE |  | TRUE | TRUE | Adenosine | detectable binding at 200 μM in the HTRF assay [2]: neither had detectable binding
12 | O=C(O)C(F)(F)F.OCC1(Nc2ncnc3[nH]ccc23)CCCC1 [AVI-3692] | -24 | 0.22 | 1 | 44 | 20 | 1.3 | TRUE | 0.22 | TRUE | 1.3 | TRUE | TRUE | Adenosine | 
13 | CCC(CC)(CO)Nc1ncnc2[nH]ccc12 [AVI-3695] | 6 | 0.12 | 2 | 24 | 30 | 1.3 | TRUE | 0.12 | TRUE | 1.3 | TRUE | TRUE | Adenosine | 
14 | CCC(C)(CO)Nc1ncnc2[nH]ccc12 (centres unmarked) [AVI-3697] | 18 | 0.16 | 1 | 32 | 50 | 1.2 | TRUE | 0.16 | TRUE | 1.2 | TRUE | TRUE | Adenosine | 
15 | CC1(C)C[C@@H](CO)N(c2ncnc3[nH]ccc23)C1.O=C(O)C(F)(F)F [AVI-3704] | 0 | 0.33 | 1 | 66 | 66 | 1.1 | TRUE | 0.33 | TRUE | 1.1 |  |  |  | X-ray crystal structure [1, 15]: TRUE; Binding site [1, 16]: Adenosine; inhibition at 200 µM [2, 20]: 90%; inhibition at 200 µM [2, 12]: 90%
16 | OCC1CC2(CCCC2)CN1c1ncnc2[nH]ccc12 (centres unmarked) [AVI-3708] | 0 | 0.32 | 1 | 64 | 64 | 1.1 | TRUE | 0.32 | TRUE | 1.1 |  |  |  | X-ray crystal structure [1, 15]: TRUE; Binding site [1, 16]: Adenosine; inhibition at 200 µM [2, 20]: 90%; inhibition at 200 µM [2, 12]: 90%
17 | OCC1CCC2(CCOCC2)CN1c1ncnc2[nH]ccc12 (centres unmarked) [AVI-4065] |  |  |  |  |  | 1.2 |  |  |  | 1.2 |  |  |  | 
18 | OC1(CNc2ncnc3[nH]ccc23)CCC2(CC1)OCCO2 [AVI-4315] |  |  |  |  |  | 1.2 |  |  |  | 1.2 |  |  |  | 
19 | CC(Nc1ncnc2[nH]ccc12)C1(O)CCCCC1 (centres unmarked) [AVI-4321] |  |  |  |  |  | 1.2 |  |  |  | 1.2 |  |  |  | 
